Results: ChEMBL document CHEMBL5247598 (Eur J Med Chem, 2022)
pIC50: −log10 of the molar value. Activity calls are given as the source filed them. The calls are words filed in the database; no cut-off is given here.

Experiments:
NCI/ADR-RES [1] = assay: Induction of apoptosis in human NCI-ADR-RES cells assessed as viable cells at 3 uM incubated for 48 hrs by Annexin V-FITC and DAPI staining based flow cytometry (Rvb= 97.9 %); assay type: functional; conditions: read-out: Activity
MCF7 = assay: Antiproliferative activity against human MCF7 cells assessed as reduction in cell viability incubated for 48 hrs by MTT assay; assay type: functional, cell-based; conditions: MCF7, 48 h, read-out: IC50
[2] = Cytotoxicity against human HEK293T cells assessed as reduction in cell viability incubated for 48 hrs by MTT assay; assay type: toxicity, cell-based, HEK-293T
NCI/ADR-RES [3] = assay: Reversal fold, ratio of doxorubicin IC50 to doxorubicin IC50 in presence of 10 uM test compound for reversal of P-gp-mediated multidrug resistance in human NCI-ADR-RES cells incubated for 48 hrs by MTT assay; assay type: functional
HCT-8 = assay: Antiproliferative activity against human Taxol resistant HCT-8 cells assessed as inhibition of cell growth at 50 uM incubated for 48 hrs by MTT assay; assay type: functional, cell-based
L02 = assay: Cytotoxicity against human L02 cells assessed as inhibition of cell growth at 50 uM incubated for 48 hrs by MTT assay; assay type: toxicity, cell-based; conditions: l02, 48 h
NCI/ADR-RES [4] = assay: Induction of apoptosis in human NCI-ADR-RES cells assessed as necrotic cells at 3 uM incubated for 24 hrs by Annexin V-FITC and DAPI staining based flow cytometry (Rvb= 0.55 %); assay type: functional
NCI/ADR-RES [5] = assay: Induction of apoptosis in human NCI-ADR-RES cells assessed as late apoptotic cells at 3 uM incubated for 24 hrs by Annexin V-FITC and DAPI staining based flow cytometry (Rvb= 0.66 %); assay type: functional
NCI/ADR-RES [6] = assay: Induction of apoptosis in human NCI-ADR-RES cells assessed as early apoptotic cells at 8 uM incubated for 24 hrs in presence of doxorubicin by Annexin V-FITC and DAPI staining based flow cytometry (Rvb= 0.89 %); assay type: functional
NCI/ADR-RES [7] = assay: Induction of apoptosis in human NCI-ADR-RES cells assessed as early apoptotic cells at 8 uM incubated for 48 hrs in presence of doxorubicin by Annexin V-FITC and DAPI staining based flow cytometry (Rvb= 0.89 %); assay type: functional
NCI-ADR-RES [8] = assay: Inhibition of PI3K/AKT signaling pathway in human NCI-ADR-RES cells assessed as changes in caspase-6 level at 3 uM incubated for 24 to 48 hrs in presence of doxorubicin by Western blot analysis; assay type: cell-based; conditions: time 24-48 hrs
NCI-ADR-RES [9] = assay: Inhibition of PI3K/AKT signaling pathway in human NCI-ADR-RES cells assessed as decrease in Bcl-xL level at 3 uM incubated for 24 to 48 hrs in presence of doxorubicin by Western blot analysis; assay type: cell-based; conditions: time 24-48 hrs

C=C1[C@H](OC(C)=O)[C@@H](OC(C)=O)[C@@H](OC(C)=O)C(C)(C)/C=C/[C@H](C)[C@H](OC(=O)c2ccccc2)[C@@]2(O)C[C@@](C)(OC(=O)C(C)(C)C)[C@H](OC(C)=O)[C@@H]2[C@H]1OCC(C)C
viability at 3 µM (NCI/ADR-RES [1]): 98.4%
pIC50 (MCF7): < 4.00
IC50 at 48 h [2]: 56.3 µM
Ratio IC50 (NCI/ADR-RES [3]): 116.6
Activity (HCT-8): inactive
Activity (L02): Non-Toxic
Activity (NCI/ADR-RES [4]): 1.06%
Activity (NCI/ADR-RES [5]): 0.73%
Activity (NCI/ADR-RES [6]): 10.2%
Activity (NCI/ADR-RES [7]): 16.4%
inhibition (NCI-ADR-RES [8]): inactive
inhibition (NCI-ADR-RES [9]): Active
